What was measured:
[1] = test system: hepatocellular carcinoma (HepG2); assay: In vitro antiproliferative activity, HepG2; format: cell-based, human; conditions: HepG2 cells
Description: (§1) Antiproliferative activity of compounds 11a−11c, 12a−12c, 13a−13c, 14a−14c, 15a−15c, 16a, 23a−23c, 24a−24c, 25a−25c, 34a−34c and 35a−35c was evaluated in vitro on four human tumor cell lines (American Type Culture Collection, Manassas, VA, USA): metastatic colorectal adenocarcinoma (SW620), ductal pancreatic adenocarcinoma (CFPAC-1), hepatocellular carcinoma (HepG2) and cervical carcinoma (HeLa) as well as normal skin fibroblasts (HFF).

[2] = test system: metastatic colorectal adenocarcinoma (SW620); assay: In vitro antiproliferative activity, SW620; format: cell-based, human; conditions: SW620 cells
Description: as §1

[3] = test system: cervical carcinoma (HeLa); assay: In vitro antiproliferative activity, HeLa; format: cell-based, human; conditions: HeLa cells
Description: as §1

[4] = Chrom logD determination (fast-gradient HPLC); conditions: pH 7.4
[5] = test system: ductal pancreatic adenocarcinoma (CFPAC-1); assay: In vitro antiproliferative activity, CFPAC-1; format: cell-based, human; conditions: CFPAC-1 cells
Description: as §1

[6] = test system: normal skin fibroblasts (HFF); assay: Cytotoxicity on non-tumor cells, HFF; format: cell-based, human
Description: as §1

[7] = Turbidimetric kinetic solubility assay; conditions: PBS, 1% DMSO, 37 °C, 2 h, estimated range
Description: The turbidimetric solubility assay, which allows a rapid determination of the kinetic solubility of newly synthesized compounds using small amounts of their DMSO solutions, was used to assess the kinetic solubility [38].
The compounds’ DMSO stock solutions in concentration of 10 mM were serially diluted by factor 3.3×, 3×, 3.3× and 3× in DMSO. Prepared solutions were spiked into phosphate-buffered saline (PBS, 100 mM) to obtain final compounds’ concentrations of 100, 30, 10, 3 and 1 µM (3 µL of prepared dilutions were spiked to 297 µL of PBS, with final DMSO content of 1%, v/v). All compounds were tested in two replicas per concentration. Prepared solutions were incubated at 37 °C for 2 h with gentle shaking. Blank solutions were also prepared by spiking DMSO in PBS buffer (1% of DMSO, v/v). […] Compound/control samples are compared to the blank solution. […] Results were expressed as an estimated solubility range (lower and upper bound).

Row | IC50 [1] | IC50 [2] | IC50 [3] | Chrom logD [4] | IC50 [5] | Kinetic Solubility [7] | SMILES | IC50 [6]
1 | > 100 µM | > 100 µM | > 100 µM | 3.58 | > 100 µM | 30 to 100 µM | [Fe+2].c1cc[c-](-c2cn(CCn3cnc4c(N5CCCC5)ncnc43)nn2)c1.c1cc[cH-]c1 [Compound 35b, 6-(Pyrrolidin-1-yl)-9-[2-(4-ferrocenyl-1,2,3-triazol-1-yl)ethyl]-9H-purine] | > 100 µM
2 | > 100 µM | > 100 µM | > 100 µM | 5.02 | > 100 µM | 10 to 30 µM | [Fe+2].c1cc[c-](-c2cn(CCn3cnc4c(N5CCCCC5)ncnc43)nn2)c1.c1cc[cH-]c1 [Compound 35c, 6-(Piperidin-1-yl)-9-[2-(4-ferrocenyl-1,2,3-triazol-1-yl)ethyl]-9H-purine] | 6.83 ± 2.17 µM
3 | > 100 µM | > 100 µM | > 100 µM | 3.37 | > 100 µM | <1 µM | Nc1nc(Cl)c2c(ncn2Cc2cn(C[c-]3cccc3)nn2)n1.[Fe+2].c1cc[cH-]c1 [Compound 16a, 2-Amino-6-chloro-7-[1-(1-ferrocenymethyl-1,2,3-triazol-4-yl)methyl]-7H-purine] | 5.3 ± 5.36 µM
4 | 48.1 ± 7.85 µM | 78.2 ± 5.69 µM | 63 ± 6.06 µM | 3.70 | 65.3 ± 6.23 µM | 10 to 30 µM | Clc1ncnc2c1ncn2CCn1cc(-[c-]2cccc2)nn1.[Fe+2].c1cc[cH-]c1 [Compound 35a, 6-Chloro-9-[2-(4-ferrocenyl-1,2,3-triazol-1-yl)ethyl]-9H-purine] | 6 ± 2.99 µM
5 | 57.6 ± 13.8 µM | 57.6 ± 6.55 µM | 71.1 ± 15.9 µM | 5.49 | 45.8 ± 9.11 µM | 10 to 30 µM | [Fe+2].c1cc[c-](-c2cn(CCn3ccc4c(N5CCCCC5)ncnc43)nn2)c1.c1cc[cH-]c1 [Compound 34c, 4-(Piperidin-1-yl)-7-[2-(4-ferrocenyl-1,2,3-triazol-1-yl)ethyl]-7H-pyrrolo[2,3-d]pyrimidine] | 20.2 ± 1.54 µM
6 | > 100 µM | > 100 µM | > 100 µM | 4.30 | > 100 µM | 10 to 30 µM | [Fe+2].c1cc[c-](-c2cn(CCn3ccc4c(N5CCCC5)ncnc43)nn2)c1.c1cc[cH-]c1 [Compound 34b, 4-(Pyrrolidin-1-yl)-7-[2-(4-ferrocenyl-1,2,3-triazol-1-yl)ethyl]-7H-pyrrolo[2,3-d]pyrimidine] | > 100 µM
7 | > 100 µM | > 100 µM | > 100 µM | 4.92 | > 100 µM | 10 to 30 µM | Clc1ncnc2c1ccn2CCn1cc(-[c-]2cccc2)nn1.[Fe+2].c1cc[cH-]c1 [Compound 34a, 4-Chloro-7-(2-(4-ferrocenyl-1,2,3-triazol-1-yl)ethyl)-7H-pyrrolo[2,3-d]pyrimidine] | > 100 µM

The remaining lines, values behind:

Row | SMILES | IC50 [1] | IC50 [2] | IC50 [3] | Chrom logD [4] | IC50 [5] | Kinetic Solubility [7] | IC50 [6]
8 | Nc1ncnc2c1ncn2Cc1cn(C[c-]2cccc2)nn1.[Fe+2].c1cc[cH-]c1 [Compound 12a, 6-Amino-9-[1-(1-ferrocenymethyl-1,2,3-triazol-4-yl)methyl]-9H-purine] | > 100 µM | > 100 µM | > 100 µM | 2.85 | > 100 µM | 30 to 100 µM | 56.6 ± 15.6 µM
9 | Clc1ncnc2c1ncn2Cc1cn(-[c-]2cccc2)nn1.[Fe+2].c1cc[cH-]c1 [Compound 13c, 6-Chloro-9-[1-(1-ferrocenyl-1,2,3-triazol-1-yl)methyl]-9H-purine] | 54.7 ± 3.21 µM | 51.8 ± 1.9 µM | 46.8 ± 6.72 µM | 4.19 | 54.7 ± 5.13 µM | >100 µM | 6.77 ± 2.78 µM
10 | Clc1ncnc2ncn(Cc3cn(-[c-]4cccc4)nn3)c12.[Fe+2].c1cc[cH-]c1 [Compound 15c, 6-Chloro-7-[1-(1-ferrocenyl-1,2,3-triazol-1-yl)methyl]-7H-purine] | 81.7 ± 17.1 µM | 45.5 ± 4.52 µM | 69.2 ± 25.5 µM | 3.68 | 72.2 ± 13.7 µM | >100 µM | 29.6 ± 4.28 µM
11 | CC([c-]1cccc1)n1cc(Cn2cnc3c(Cl)ncnc32)nn1.[Fe+2].c1cc[cH-]c1 (stereo not shown) [Compound 13b, 6-Chloro-9-[1-(1-ferrocenyl-1-methylmethyl-1,2,3-triazol-4-yl)methyl]-9H-purine] | 38.8 ± 10.1 µM | 36.6 ± 3.42 µM | 40.3 ± 4.52 µM | 4.64 | 43.8 ± 10.9 µM | 30 to 100 µM | 6.79 ± 1.06 µM
12 | Nc1nc(Cl)c2ncn(Cc3cn(C[c-]4cccc4)nn3)c2n1.[Fe+2].c1cc[cH-]c1 [Compound 14a, 2-Amino-6-chloro-9-[1-(1-ferrocenymethyl-1,2,3-triazol-4-yl)methyl]-9H-purine] | 60.1 ± 5.73 µM | 60.2 ± 24.4 µM | 71.4 ± 16.1 µM | 3.62 | 49.5 ± 5.03 µM | 30 to 100 µM | > 100 µM
13 | CC([c-]1cccc1)n1cc(Cn2cnc3c(Cl)nc(N)nc32)nn1.[Fe+2].c1cc[cH-]c1 (stereo not shown) [Compound 14b, 2-Amino-6-chloro-9-[1-(1-ferrocenyl-1-methylmethyl-1,2,3-triazol-4-yl)methyl]-9H-purine] | 77.1 ± 5.92 µM | 98.7 ± 19.7 µM | > 100 µM | 3.90 | 67.4 ± 9.12 µM | 30 to 100 µM | 11.5 ± 5.09 µM
14 | CC([c-]1cccc1)n1cc(Cn2cnc3c(N)ncnc32)nn1.[Fe+2].c1cc[cH-]c1 (stereo not shown) [Compound 12b, 6-Amino-9-[1-(1-ferrocenyl-1-methylmethyl-1,2,3-triazol-4-yl)methyl]-9H-purine] | 68.6 ± 9.15 µM | 75 ± 8.93 µM | 76.4 ± 3.41 µM | 3.09 | 70.2 ± 6.5 µM | >100 µM | 18.4 ± 2.64 µM
15 | Nc1ncnc2c1ncn2Cc1cn(-[c-]2cccc2)nn1.[Fe+2].c1cc[cH-]c1 [Compound 12c, 6-Amino-9-[1-(1-ferrocenyl-1,2,3-triazol-1-yl)methyl]-9H-purine] | > 100 µM | > 100 µM | > 100 µM | 2.64 | > 100 µM | 3 to 10 µM | 54.5 ± 4.96 µM
16 | Nc1nc(Cl)c2ncn(Cc3cn(-[c-]4cccc4)nn3)c2n1.[Fe+2].c1cc[cH-]c1 [Compound 14c, 2-Amino-6-chloro-9-[1-(1-ferrocenyl-1,2,3-triazol-1-yl)methyl]-9H-purine] | > 100 µM | 81.3 ± 1.23 µM | > 100 µM | 3.50 | 90.5 ± 1.83 µM | <1 µM | 24.6 ± 4.45 µM
